Here are results for three molecules from US11331379B2, “Compositions and methods for regulating pancreatic beta cell function using adipsin” (Dana-Farber Cancer Institute, Inc., priority 2014, dated 2022).

Assay [1] concerns the target T1, C3aR1 (Mus musculus, UniProt O09047).
T1 construct: endogenous in cells; host or cells: db/db mice (Jackson Laboratories, Stock 000697), whole animal
T1 sequence (O09047 1-477): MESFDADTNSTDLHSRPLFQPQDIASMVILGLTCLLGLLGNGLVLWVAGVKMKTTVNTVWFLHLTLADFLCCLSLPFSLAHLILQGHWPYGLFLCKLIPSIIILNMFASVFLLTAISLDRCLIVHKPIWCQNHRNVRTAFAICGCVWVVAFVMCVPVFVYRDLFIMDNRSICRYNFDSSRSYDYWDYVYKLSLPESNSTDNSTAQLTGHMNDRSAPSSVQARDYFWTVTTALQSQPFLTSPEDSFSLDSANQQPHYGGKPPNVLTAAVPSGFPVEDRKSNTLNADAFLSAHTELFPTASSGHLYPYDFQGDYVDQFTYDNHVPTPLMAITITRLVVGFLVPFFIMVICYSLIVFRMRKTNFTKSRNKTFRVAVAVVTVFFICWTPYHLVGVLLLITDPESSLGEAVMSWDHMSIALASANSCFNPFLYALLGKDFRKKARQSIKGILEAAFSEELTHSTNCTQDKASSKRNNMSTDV
Put plainly: C3aR1 antagonist treatment of adipsin-adenovirus-transduced db/db mice, i.p. GTT and plasma insulin. Format: in vivo. The source says: Wild-type (WT) and Adipsin^−/− mice (from G. Stahl, Brigham and Women's Hospital, Boston, Mass., USA) were backcrossed 7-10 generations to C57BL/6 (B6) background. Control littermate mice from same backcrossed generations were used for experiments. B6 mice were fed a regular chow diet or a 60% kCal high fat diet (Research Diets, New Brunswick, N.J., USA) for the indicated times. db/db mice (Stock 000697) were purchased from Jackson laboratories (Bar Harbor, Me., USA). For adenoviral expression studies, mice were injected intravenously with lacZ or adipsin-expressing pAd adenoviral vectors (Life Technologies, Grand Island, N.Y., USA) and assayed 5 days later. For C3aR1 antagonist experiments, SB 290157 (N^2-[(2,2-Diphenylethoxy)acetyl]-L-arginine, TFA, Millipore, Billerica, Mass., USA) dosed at 30 mg/kg or vehicle (10% ethanol) was administered by intraperitoneally (i.p.) injections bis in die (b.i.d.) from days 3-5 after adenovirus. Mice were fasted overnight for glucose tolerance tests and given an i.p. injection of D-glucose ([…] for regular diet mice). For insulin tolerance tests, mice were fasted for 5 hours and given an i.p. injection of insulin (0.75 units/kg body weight). Blood samples were taken from the tail vein and measured with a glucometer. The mice were housed in a facility accredited by the American Association for Laboratory Animal Care. The Institutional Animal Care and Use Committee of the Beth Israel Deaconess Medical Center approved studies using animals.

The subject of assay [2] is murine islets. Put plainly: static glucose-stimulated insulin secretion (GSIS) assay in isolated islets. Type of assay: cell-based, mouse. Conditions: for enhancement of insulin secretion: islets from WT mice on chow diet. The method, then: (§1) Recombinant C3a and C5a proteins (R&D Systems, Minneapolis, Minn., USA) were used at a concentration of 100 nM. Anti-adipsin antibody for Western blot analysis was from Santa Cruz Biotechnology, Santa Cruz, Calif., USA). Antibodies to C3aR1 (Santa Cruz Biotechnology), C5aR1 (Biolegend, San Diego, Calif., USA) and C5L2 (Hycult Biotechnology, Plymouth Meeting, Pa., USA) were used for flow cytometry. RNA isolation and reverse transcription were performed with TRIzol® (Life Technologies), RNeasy (Qiagen, Valencia, Calif., USA) and cDNA synthesis (Agilent Technologies, Santa Clara, Calif., USA) kits. qPCR reactions were done with SYBR green on an ABI PRISM® 7900HT real time PCR system (Life Technologies).
Islets were isolated from pancreata of the indicated genotype with collagenase digestion as previously described (Danial et al. (2008) Nat. Med. 14:144-153). For static incubation (batch release) assays, islets were handpicked and placed into basal Krebs buffer containing 3 mM glucose followed by transfer into Krebs solution containing the indicated concentrations of glucose or secretagogues. After 45 min incubation at 37° C., the islets were pelleted and the supernatant was collected for insulin measurement. The pellet was solubilized to assess intracellular insulin content. Insulin was measured by ELISA using mouse insulin as a standard (Crystal Chem Inc., Downers Grove, Ill., USA).

Assay [3] has as its system islets. Put plainly: cytoplasmic free Ca2+ measurement in perifused islets (Fura-2). Type of assay: cell-based, mouse. The method, then: as §1
For measurements of cytoplasmic free Ca^2+ concentration, islets were loaded with 2 μM Fura-2/AM (Molecular Probes, Eugene, Oreg., USA) for 60 min. in the presence or absence of C3a in a buffer containing (in mM) 125 NaCl, 5.9 KCl, 1.28 CaCl2, 1.2 MgCl2, 25 HEPES, and 3 glucose and 0.1% BSA (pH 7.4). After loading, a single islet was transferred to an open perifusion chamber maintained at 37° C. and [Ca^2+], was measured as the 340/380 nm fluorescence ratio using a Spex FluoroLog® spectrophotometer coupled to a Zeiss Axiovert 35 M microscope with a Zeiss Fluar 40×/1.30 oil objective (Carl Zeiss, Gottingen, Germany). Concentrations of 20 mM glucose and 50 mM KCl (in the presence of 3 mM glucose) were used for islet stimulation.

For assay [4], the system named is islets. Put plainly: oxygen consumption rate (OCR) of islets, XF24 analyzer. Format: cell-based, mouse. The method, then: as §1
Real-time measurements of mitochondrial oxygen consumption rate (OCR) were performed using the XF24 extracellular flux analyzer instrument and the AKOS algorithm built in the XF24 v1.7.0.74 software (Seahorse Bioscience, Inc., Billerica, Mass., USA). Islets were rinsed with sodium bicarbonate-free DMEM supplemented with 0.5% BSA and 3 mM glucose and 60 islets were distributed per well and recounted for OCR measurements. After baseline measurements, substrates or inhibitors of interests were added in single 50 μl injections delivered through individual injection ports. […] The respiratory rate of each islet sample was measured at 37° C. and analyzed using the Seahorse XF24 v1.5.0.69 software.

The target of assay [5] is T1, C3aR1. Put plainly: GSIS assay in islets from wild-type and C3aR1-deficient mice with or without C3a. Type of assay: cell-based. Conditions: WT versus C3aR1-deficient islets. The source says: Panels A and B show the relative expression of Adipsin (Panel A) and C3 (Panel B) in liver, quadriceps muscle (quad), islets, epididymal (epi) and inguinal (ing) fat. Samples were quantitated by qPCR. Panels C-E show the results of flow cytometry performed on islet cells with antibodies to the complement/anaphylatoxin receptors C3aR1 (Panel C), C5aR1 (Panel D), and C5L2 (Panel E). Panels F-G show the results of isolated islets from WT mice on a chow diet (Panel F) or HFD (Panel G) subjected to a GSIS assay in the presence or absence of recombinant C3a and C5a with the indicated concentrations of glucose. Panels H and I show the results of db/db mice transduced with lacZ or adipsin adenovirus ([…]) treated with vehicle or C3aR antagonist (SB 290157) at a dose of 30 mg/kg b.i.d. for 3 days and subjected to an i.p. GTT with measurements of blood glucose concentrations (Panel H) and plasma insulin levels (Panel I) at the indicated times. Statistics for GTT assays between groups: lacZ/vehicle vs. adipsin/vehicle, p=0.05; adipsin/vehicle vs. adipsin/SB 290157, p<0.01; lacZ/SB 290157 vs. adipsin/vehicle, p<0.01. […]
Islets were isolated from pancreata of the indicated genotype with collagenase digestion as previously described (Danial et al. (2008) Nat. Med. 14:144-153). […] Insulin was measured by ELISA using mouse insulin as a standard (Crystal Chem Inc., Downers Grove, Ill., USA).

Consider `N=C(N)NCCC[C@H](NC(=O)COCC(c1ccccc1)c1ccccc1)C(=O)O.O=C(O)C(F)(F)F` [SB 290157, N^2-[(2,2-Diphenylethoxy)acetyl]-L-arginine, TFA], for which the “improvements in insulin secretion conferred by the adipsin adenovirus” value in assay [1] (db/db mice with adipsin adenovirus, antagonist 30 mg/kg i.p. b.i.d. for 3 days) is “nearly completely reversed”. For the same molecule, the “improvements in glucose tolerance conferred by the adipsin adenovirus” value in assay [1] (db/db mice with adipsin adenovirus, antagonist 30 mg/kg i.p. b.i.d. for 3 days, i.p. GTT) is “nearly completely reversed”. In addition, in assay [1] (db/db mice, adipsin adenovirus plus SB 290157 30 mg/kg b.i.d. 3 days, i.p. glucose challenge), the “insulin induction from time 0 to 20 minutes” value is given as 1.4 fold.

On to “C3a: Recombinant C3a protein (R&D Systems); complement peptide, direct product of C3 convertase generated by adipsin”, for which, in assay [2] (0.25 mM tolbutamide, C3a 100 nM), the “insulin secretion in conjunction with tolbutamide” value is listed as “further stimulated insulin secretion”. Further, the “insulin secretion in conjunction with KCl” value in assay [2] (30 mM KCl, C3a 100 nM) is reported as “further stimulated insulin secretion”. For the same molecule, the “enhancement of insulin secretion” value in assay [2] (high glucose, 100 nM, acute) is 30-40%; in assay [2] (low glucose, 100 nM), “not low”. Moreover, the “insulin secretion in diabetic islets” value in assay [2] (islets from diabetic mice fed a HFD, 100 nM) was “stimulated insulin secretion”. The “basal levels of [Ca2+]i” value in assay [3] (3 mM glucose, C3a-treated versus control islets) is on record as “similar”. Further, in assay [3] (20 mM glucose and KCl stimulation), the “[Ca2+]i in response to glucose and KCl” value is given as “potently augmented”. In assay [3] (C3a-treated versus non-treated islets), the “response times of [Ca2+]i” value is on record as “similar”. The results for the “increase of [Ca2+]i area under the curve” value in assay [3] (KCl stimulation) and in assay [3] (glucose stimulation (20 mM)) were around 100% and around 50%, respectively. The “increase of peak [Ca2+]i” value in assay [3] (KCl stimulation) is around 100%; in assay [3] (glucose stimulation (20 mM)), around 50%. The “increases in [Ca2+]i” value in assay [3] (isolated islets perifused with glucose or KCl in the presence of C3a) is 50-100%. For the same molecule, the “oxygen consumption with glucose challenge” value in assay [4] (20 mM glucose, acute C3a, versus control islets) was “increased oxygen consumption”. The ATP-coupled respiration entry in assay [4] (islets, C3a versus control) is “increases ATP-coupled respiration”. Further, the “C3a-mediated potentiation of glucose-stimulated insulin secretion” value in assay [5] is listed as “C3aR1 is required”.

B1: C5a: Recombinant C5a protein (R&D Systems), complement anaphylatoxin (protein, UniProt P01031 678-751, looked up)
C5a anaphylatoxin: TLQKKIEEIAAKYKHSVVKKCCYDGACVNNDETCEQRAARISLGPRCIKAFTECCVVASQLRANISHKDMQLGR
modifications: C5a anaphylatoxin
Regarding B1, the “enhancement of insulin secretion” value in assay [2] (C5a 100 nM, GSIS) is “did not show this effect”.
